Source: patent US8841285B2, “Potent immunosuppressive agents, derivatives and uses” (priority 2002, dated 2014)
Where two headings read alike, the source gives them in different places.

How the values were obtained:
[1] = test system: IL-2 promoter luciferase reporter in stimulated Jurkat T cells; experiment: IL-2 reporter gene assay (transfected Jurkat cells); format: cell-based
Experimental: The ability of these derivatives to inhibit T cell receptor-mediated IL-2 production was analyzed using an IL-2 reporter gene assay. In this assay, a plasmid encoding a reporter gene (luciferase) under the control of the IL-2 promoter was first introduced into Jurkat T cells by transfection. The transfected Jurkat T cells are then stimulated with two pharmacological agents, phorbol myristyl acetate (PMA), which activates protein kinase C, and inonmycin, which allows calcium ion to enter T cells to activate calmodulin and calcineurin. Together, PMA and ionomycin recapitulate T cell receptor signaling, leading to the activation of the luciferase reporter gene by activating the IL-2 promoter. The ability of PatA and its analogs to block T cell receptor-mediated IL-2 expression was measured by their effects on this reporter gene assay. Su, B., et a., Cell 1994, 77, 727-736.

[2] = stability in CDCl3; format: physicochemical; settings: CDCl3, 25° C.
[3] = test system: cancer cell lines; experiment: cell proliferation assay ([3H]-thymidine incorporation), cancer cell lines; format: cell-based
Experimental: (§1) Cell Proliferation Assay. 1×10^5 of indicated cells in each well of a 96-well plate were treated with indicated compounds for 24 h followed by addition of 0.11 μCi of [^3H]-thymidine (6.7 Ci/mmol) per well for 6 h, followed by harvesting to GF/C filtermats using a cell harvester. Filtermats were air-dried and scintillation counted. IC50s were determined from quadruplicate data readings and curve-fitting analysis.

[4] = test system: HeLa cells; experiment: cell proliferation assay, HeLa cells; format: cell-based
Experimental: Cell Culture and transient overexpression. HeLa, RKO, and 293T cells were cultured in DMEM (10% FBS), and Hela S3 and MCF-7 cells in RPMI1640 (10% FBS) in a water jacket cell culture incubator with 5% CO2. Transient transfection was performed using kit as described by the manufacturer. Ectopic overexpression of indicated proteins was performed using pSG5-myc-STRAP, pSG5-eIF4AI, and pcDNA-Flag-4B(wt)
as §1

[5] = test system: protein synthesis in HeLa S3 cells; experiment: metabolic labelling, protein synthesis ([35S]-methionine/cysteine); format: cell-based
Experimental: (§2) Metabolic Labelling. About 5000 HeLa S3 cells per well in 96-well plates were cultured overnight in duplicate. One set of plates were washed twice with, then incubated for 20 min in Met and Cys free medium, then exchanged for labeling medium (RPMI 1640 with 10% FBS dialyzed in PBS overnight, and 0.15 mCi/ml [^35S]-Met and [^35S]-Cys) with indicated compounds and final volume of 100 μl per well. After 1 h or 3 h incubation, and two washes with ice-cold PBS, cells were lysed in RIPA buffer, under agitation for 30 min at 4° C. 5 μl of lysate from each well was combined with 25 μl of 1 mg/ml BSA, and added to 96 well plates, followed by addition of 150 μl of 5% TCA in ethanol and incubated at 4° C. for 30 min. Filtration was performed on a vacuum manifold as per manufacturer's instructions with 2 washes of 5% TCA in ethanol, then twice with 100% ethanol. After air-drying, scintillation counting was performed. For the second set, replacement media contained […] [^3H]-uridine and indicated compound, and incubated for 1 or 3 h. Remaining procedure was identical to cell proliferation assay.

[6] = test system: RNA synthesis in HeLa S3 cells; experiment: metabolic labelling, RNA synthesis ([3H]-uridine); format: cell-based
Experimental: as §2

[7] = biological target: T1, eIF4A (Homo sapiens, UniProt P60842); experiment: B-PatA streptavidin pull-down competition; format: binding; settings: RKO cell lysate, pre-incubation with competitor
T1 construct: Cell lysates from RKO cells were prepared as previously described; endogenous in cells; host or cells: RKO cell lysate
Experimental: Streptavidin-agarose Pulldown with B-PatA. Cell lysates from RKO cells were prepared as previously described (Griffith et al., 1997). HeLa lysates were prepared in buffer: 10 mM HEPES-OH, pH 7.6, 10 mM KC2H3O2, and 0.5 mM MgC2H3O2. RRL and WGE were diluted about 12 fold using HeLa lysate buffer. All pulldowns included protease inhibitors. Streptavidin-beads were pre-incubated with 10 mg/ml BSA in buffer for 1 h at 4° C. with mixing. Equal aliquots of lysate (200 μl) were incubated with DMSO or PatA analog for 1 h at 4° C. with mixing, followed by addition of DMSO or B-PatA and incubation for 2 h. Each sample was combined with equal amounts of pre-blocked beads and incubated for 1 h at 4° C. Beads were washed with 3 ml of buffer, boiled in SDS-PAGE loading buffer and analyzed by SDS-PAGE and silver-staining or immunoblotting.

[8] = biological target: T2, eIF4A-eIF4B (Homo sapiens, UniProt P60842); experiment: 6XHis-eIF4AI pulldown, eIF4A-eIF4B interaction; format: binding; settings: HeLa lysate; PatA at 100 μM
T2 construct: The entire ORF of human eIF4AI was ligated in-frame into the BamHI and HindIII sites of the pET-28a expression vector; made in house; host or cells: bait from E. coli BL21(DE3); eIF4B endogenous in HeLa lysate
Experimental: 6XHis-eIF4AI pulldown, Co-immunoprecipitation, and m^7GTP-Sepharose pulldown. For 6XHis-eIF4AI pulldowns, HeLa lysates were prepared as described above. Equal aliquots (200 μl) of lysate were incubated with PatA analogs or DMSO and 8.5 μg of 6XHis-eIF4AI overnight at 4° C., followed by addition of Ni-NTA resin for 1 h, then resin was washed with 3 ml buffer, and boiled in SDS-PAGE loading buffer followed by SDS-PAGE and immunoblotting with indicated antibodies. For co-immunoprecipitation, 293T cells with vector control or pcDNA3-Flag-4B lysates were prepared by pipetting in: 20 mM HEPES, pH 7.4, 100 mM KCl, 0.5% Triton-X-100, 20% glycerol, protease inhibitor and 15 μg/ml RNAse A followed by clearing at 13 000 g (10 min). For DMDA-PatA treated samples, lysis and wash buffers also contained 100 nM DMDA-PatA. Anti-Flag antibody was incubated overnight at 4° C., followed by addition of Protein G beads for 4 h. Beads were washed 3× with 500 μl buffer, boiled in SDS-PAGE loading buffer followed by SDS-PAGE and immunoblotting. m^7GTP-Sepharose was performed as described (Yoder-Hill et al., 1993) with modifications. 30 μl RRL was incubated with DMSO or DMDA-PatA at room temperature for 30 min, diluted with buffer supplemented with DMSO or DMDA-PatA (20 nM), then combined with 50 μl beads for 3 h at 4° C. followed by 4 washes with 1 ml buffer. […]

[9] = test system: HeLa cells; format: cell-based

T2 sequence (P60842 whole entry): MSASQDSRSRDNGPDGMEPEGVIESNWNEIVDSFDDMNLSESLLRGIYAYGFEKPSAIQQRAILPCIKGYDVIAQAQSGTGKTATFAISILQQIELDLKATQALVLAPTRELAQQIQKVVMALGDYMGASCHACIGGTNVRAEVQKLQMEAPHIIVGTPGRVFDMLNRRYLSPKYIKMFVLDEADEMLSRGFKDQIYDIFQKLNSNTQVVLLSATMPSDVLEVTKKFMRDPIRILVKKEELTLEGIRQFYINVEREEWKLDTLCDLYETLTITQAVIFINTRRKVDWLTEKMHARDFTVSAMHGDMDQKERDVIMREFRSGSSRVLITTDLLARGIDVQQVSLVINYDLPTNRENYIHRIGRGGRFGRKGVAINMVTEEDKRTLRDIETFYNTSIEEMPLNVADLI
T2 sequence (P23588 whole entry partner): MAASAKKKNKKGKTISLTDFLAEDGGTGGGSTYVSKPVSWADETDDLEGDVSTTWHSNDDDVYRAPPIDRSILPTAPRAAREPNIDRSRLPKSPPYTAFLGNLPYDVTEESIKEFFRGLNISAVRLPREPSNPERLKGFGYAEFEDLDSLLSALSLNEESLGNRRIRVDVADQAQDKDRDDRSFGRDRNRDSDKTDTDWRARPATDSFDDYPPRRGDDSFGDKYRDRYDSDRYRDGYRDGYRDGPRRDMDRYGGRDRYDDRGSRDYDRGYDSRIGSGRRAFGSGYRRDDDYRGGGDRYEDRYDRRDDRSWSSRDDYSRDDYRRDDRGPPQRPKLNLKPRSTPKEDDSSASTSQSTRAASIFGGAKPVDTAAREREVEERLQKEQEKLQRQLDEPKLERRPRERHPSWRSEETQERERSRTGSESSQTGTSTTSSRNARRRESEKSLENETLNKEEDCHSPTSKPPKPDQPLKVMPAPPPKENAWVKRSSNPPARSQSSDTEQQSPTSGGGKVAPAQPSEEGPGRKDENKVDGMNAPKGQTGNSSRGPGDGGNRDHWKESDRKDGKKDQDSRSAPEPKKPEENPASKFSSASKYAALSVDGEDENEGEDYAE
T1 sequence (P60842 2-406): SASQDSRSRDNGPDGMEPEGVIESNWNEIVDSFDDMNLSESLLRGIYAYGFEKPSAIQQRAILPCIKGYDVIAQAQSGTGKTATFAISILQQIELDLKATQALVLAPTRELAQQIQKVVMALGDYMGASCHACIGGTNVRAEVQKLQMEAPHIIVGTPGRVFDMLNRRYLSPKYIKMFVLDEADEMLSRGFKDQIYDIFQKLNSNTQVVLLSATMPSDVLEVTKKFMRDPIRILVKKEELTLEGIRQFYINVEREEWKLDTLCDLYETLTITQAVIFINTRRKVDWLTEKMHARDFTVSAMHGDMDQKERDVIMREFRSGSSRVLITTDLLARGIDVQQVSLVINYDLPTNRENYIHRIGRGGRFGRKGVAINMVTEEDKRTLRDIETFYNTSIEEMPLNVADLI

Structure (SMILES) | IC50 ([1]; stimulated Jurkat T cells, listed as native pateamine A, read-out: IC50, inhibition of IL-2 production / IL-2 reporter gene) [nM] | IC50 ([1]; stimulated Jurkat T cells, read-out: IC50, inhibition of IL-2 production / IL-2 reporter gene) [nM] | decomposes in CDCl3 [2] [min] | IC50 ([3]; all cancer cell lines (FIG. 12), read-out: IC50, inhibition of proliferation) [nM] | reversibility of antiproliferative effect ([4]; HeLa cells (FIG. 13)) | sensitivity on overexpression of STRAP ([4]; HeLa cells overexpressing STRAP) | increase in IC50 on overexpression of eIF4AI ([4]; HeLa cells overexpressing eIF4AI vs empty vector) [fold] | IC50 ([5]; 1 h treatment, read-out: IC50, inhibition of protein synthesis) [nM] | effect on RNA synthesis [6] | competition with B-PatA for eIF4A binding [7] | effect on eIF4A-eIF4B interaction [8] | stress granule formation [9] | IC50 ([1]; stimulated Jurkat T cells, listed as DMDA PatA 3, read-out: IC50, inhibition of IL-2 production / IL-2 reporter gene) [nM] | IC50 ([1]; stimulated Jurkat T cells, listed as DMDA PatA, read-out: IC50, inhibition of IL-2 production / IL-2 reporter gene) [nM] | IC50 ([1]; transfected Jurkat cells, same population of Jurkat T cells, read-out: IC50) [nM] | stable in CDCl3 [2] | activity in cell proliferation assays [3] | effect on protein synthesis [5]
CC(/C=C/C(C)=C/[C@@H]1Cc2nc(cs2)[C@@H](C)C[C@@H](N)CC(=O)O[C@@H](C)C/C(C)=C/C=C\C(=O)O1)=C\CN(C)C [Pat A (1), Pateamine A] | 4.01 ± 0.94 | 4 ± 0.9 | < 10 | < 1 | irreversible | did not alter sensitivity | 5 | 3.3 | inhibitory effect on RNA synthesis | effectively competed away | increase in amount of eIF4B observed | capable of inducing stress granule formation | – | – | – | – | – | –
CC(/C=C/C(C)=C/[C@@H]1Cc2nc(cs2)CCCCC(=O)O[C@@H](C)C/C(C)=C/C=C\C(=O)O1)=C\CN(C)C [compound 3, desmethyl, desamino-pateamine A] | – | – | – | – | – | – | – | – | secondary effect on RNA synthesis | competitive | enhancement of eIF4A-eIF4B interaction | – | 0.8 ± 0.3 | 0.81 ± 0.27 | 0.808 | 3-4 weeks | retain most of the activity of PatA | inhibited protein synthesis
